In US6916802B2, “Amino ceramide-like compounds and therapeutic methods of use” (Genzyme Corporation, priority 2002, dated 2005):
Values joined by “and” are separate entries in the source; they are usually repeats but may differ in a detail not shown here. Equal entries are not always repeated. Marks after values point to notes of the source that are not given here.

Legend:
acid ceramidase = assay: Acid ceramidase of MDCK cell homogenate; format: biochemical, canine
Description: (§1) Acid and neutral ceramidases were assayed under conditions like those above, but the medium contained 110 μM [1-^14C]decanoyl sphingosine (10^5 cpm) in 340 μM dioleoylphosphatidylcholine liposomes and 0.34 mg of MDCK cellular protein homogenate. […] After 60 min in the ultrasonic bath, 3 ml of C-M 2:1, carrier decanoic acid, and 0.6 ml of 0.9% saline were added and the lipids in the lower layer were separated by TLC with C-HOAc 9:1. The liberated decanoic acid was scraped off the glass plate and counted.

[1] = system: Neutral sphingomyelinase (SMase); assay: Neutral sphingomyelinase of MDCK cells; format: biochemical, canine
Description: Acid and neutral SMase assays were based on the procedures of Gatt et al. (Gatt, S. et al., “Assay of Enzymes of Lipid Metabolism With Colored and Fluorescent Derivatives of Natural Lipids,” Meth. Enzymol., 72:351-375 (1981)), using liposomes containing NBD-SM dispersed like the labeled ceramide (10 μM substrate and 30 μM lecithin). […] Incubation was at 37° C. for 30 min in the ultrasonic bath, then the fluorescent product, NBD-ceramide, was isolated by partitioning the assay mixture with 0.45 ml 2-propanol, 1.5 ml heptane, and 0.2 ml water. After centrifugation, a trace of contaminating NBD-SM was removed from 0.9 ml of the upper layer by washing with 0.35 ml water. The upper layer was analyzed with a fluorometer (460 nm excitation, 515 nm emission).

MDCK cells [2] = assay: MDCK cell growth (cellular protein per dish); format: cell-based, canine
Description: For the experiments with labeled thymidine, each 8.5 cm dish contained 500,000 Madin-Darby canine kidney (MDCK) cells in 8 ml of Dulbecco modified essential supplemented medium. […] The control cells were also incubated in the presence of BSA. The cells were washed with phosphate/saline and trichloroacetic acid, then scraped off the dishes, dissolved in alkali, and analyzed for protein and DNA incorporated tritium. [Methyl-^3H]thymidine (10 μCi) was added 4 h prior to harvesting.

Acid SMase = assay: Acid sphingomyelinase of MDCK cells; format: biochemical, canine
Description: Acid and neutral SMase assays were based on the procedures of Gatt et al. (Gatt, S. et al., “Assay of Enzymes of Lipid Metabolism With Colored and Fluorescent Derivatives of Natural Lipids,” Meth. Enzymol., 72:351-375 (1981)), using liposomes containing NBD-SM dispersed like the labeled ceramide (10 μM substrate and 30 μM lecithin). The assay medium for the neutral enzyme also contained 50 mM Tris-Cl^− (pH 7.4), 25 mM KCl, 5 mM MgCl2 and 0.29 mg of MDCK cell protein in a total volume of 0.25 ml. Incubation was at 37° C. for 30 min in the ultrasonic bath, then the fluorescent product, NBD-ceramide, was isolated by partitioning the assay mixture with 0.45 ml 2-propanol, 1.5 ml heptane, and 0.2 ml water. After centrifugation, a trace of contaminating NBD-SM was removed from 0.9 ml of the upper layer by washing with 0.35 ml water. The upper layer was analyzed with a fluorometer (460 nm excitation, 515 nm emission).
[…] The resultant ceramide was determined as above.

[3] = system: GlcCer synthase of MDCK cell homogenates; assay: Inhibition of ceramide glucosyltransferase (GlcCer synthase) of MDCK cell homogenates; format: biochemical, canine; conditions: for Inhibition at 5 μM: 5 μM inhibitor; for Inhibition at 5 μM / % Inhibition at 80 μM: triplicate ± SD, samples partly isomer mixtures; for % Inhibition at 80 μM: 80 μM inhibitor
Description: Assay of sphingolipid enzymes. The inhibitors were evaluated for their effectiveness against the GlcCer synthase of MDCK cell homogenates by incubation in a thermostatted ultrasonic bath (Radin N. S. et al., “Ultrasonic Baths as Substitutes for Shaking Incubator Baths,” Enzyme, 45:67-70 (1991)) with octanoyl sphingosine and uridinediphospho[^3H]glucose (Shukla, G. S. et al., “Glucosylceramide Synthase of Mouse Kidney: Further Characterization and Improved Assay Method,” Arch. Biochem. Biophys., 283:372-378 (1990)). The lipoidal substrate (85 μg) was added in liposomes made from 0.57 mg dioleoylphosphatidylcholine and 0.1 mg of Na sulfatide. Confluent cells were washed, then homogenized with a micro-tip sonicator at 0° C. for 3×30 sec; ˜0.2 mg of protein was used in each assay tube. In the case of the aromatic inhibitors, the test compound was simply evaporated to dryness from solution in the incubation tube. […] The aliphatic inhibitors, which appeared to be less soluble in water, were added as part of the substrate liposomes.

MDCK cells [4] = assay: Lipid changes in MDCK cells (GlcCer, ceramide, diacylglycerol); format: cell-based, canine
Ceramide synthase = Ceramide synthase of MDCK homogenate; format: biochemical, canine
Description: Ceramide synthase was assayed with 1 μM [3-^3H]sphingosine (70,000 cpm, repurified by column chromatography), 0.2 mM stearoyl-CoA, 0.5 mM dithiothreitol, and ˜300 μg of MDCK homogenate protein in 25 mM phosphate-K^+ buffer, pH 7.4, in a total volume of 0.2 ml. The incubation (for 30 min) and TLC were carried out as above and the ceramide band was counted.

neutral ceramidase = assay: Neutral ceramidase of MDCK cell homogenate; format: biochemical, canine
Description: as §1

[5] = system: MCF-7 breast carcinoma cells; assay: Tumor cell growth in vitro (sulforhodamine B), MCF-7; format: cell-based, human; conditions: rounded off to one digit, read-out: Inhibition of tumor cell growth in vitro, IC50
Description: (§2) Growth of cell lines. Comparisons of different inhibitors with regard to suppression of human cancer cell growth were made by the University of Michigan Cancer Center in vitro Drug Evaluation Core Laboratory. MCF-7 breast carcinoma cells, HT-29 colon adenocarcinoma cells, H-460 lung large cell carcinoma cells, and 9L brain gliosarcoma cells were grown in RPMI 1640 medium with 5% fetal bovine serum, 2 mM glutamine, 50 units/ml of penicillin, […] of streptomycin, and 0.1 mg/ml of neomycin. UMSCC-10A head and neck squamous carcinoma cells were grown in minimal essential medium with Earle salts and the same supplements. Medium components were from Sigma Chemical Co. Cells were plated in 96-well microtiter plates (1000 cells/well for H-460 and 9L cells, and 2000 cells/well for the other lines), and the test compounds were added 1 day later. The stock inhibitor solutions, 2 mM in 2 mM BSA, were diluted with different amounts of additional 2 mM BSA, then each solution was diluted 500-fold with growth medium to obtain the final concentrations indicated in the Figures and Tables.
(§3) Five days after plating the H-460 and 9L cells, or 6 days for the other lines, cell growth was evaluated by staining the adhering cells with sulforhodamine B and measuring the absorbance at 520 nm (Skehan, P. et al., “New Colorimetric Cytotoxicity Assay for Anticancer-Drug Screening,” J. Natl. Cancer Inst., 82:1107-1112 (1990)). The absorbance of the treated cultures is reported as percent of that of control cultures, to provide an estimate of the fraction of the cells that survived, or of inhibition of growth rate.

[6] = system: H-460 lung large cell carcinoma cells; assay: Tumor cell growth in vitro (sulforhodamine B), H-460; format: cell-based, human; conditions: rounded off to one digit, read-out: Inhibition of tumor cell growth in vitro, IC50
Description: as §2, §3

[7] = system: 9L brain gliosarcoma cells; assay: Tumor cell growth in vitro (sulforhodamine B), 9L; format: cell-based; conditions: 9L; rounded off to one digit; read-out: Inhibition of tumor cell growth in vitro, IC50
Description: as §2, §3

[8] = system: HT-29 colon adenocarcinoma cells; assay: Tumor cell growth in vitro (sulforhodamine B), HT-29; format: cell-based, human; conditions: rounded off to one digit, read-out: Inhibition of tumor cell growth in vitro, IC50
Description: as §2, §3

[9] = system: three of the tumor cell lines; assay: Growth tests of chemotherapeutic agents in the Drug Evaluation Core Laboratory; format: cell-based; conditions: range over three of the tumor cell lines
Description: as §2, §3

[10] = substituent of phenyl group; estimated from the Table in Hogberg et al.; cited from earlier work

Structure (SMILES): CCCCCCCCCCCCCC=CC(O)C(CN1CCCC1)NC(=O)CCCCCCCCCCCCCCC [IV-231B, D-threo-1-pyrrolidino-1-deoxyceramide]
- Ceramidase pH 4.5, enzyme activity (% of control) (acid ceramidase; 5 μM): 106 ± 3 % of control
- Ceramidase pH 4.5, enzyme activity (% of control) (acid ceramidase; 50 μM): 113 ± 8 % of control
- Sphingomyelinase pH 7.1, enzyme activity (% of control) ([1]; 5 μM): 131 ± 3^b % of control
- Sphingomyelinase pH 7.1, enzyme activity (% of control) ([1]; 50 μM): 120 ± 3^b % of control
- effect on MDCK cell growth (MDCK cells [2]; 20 μM for 1 day or 1 μM for 3 days): no inhibitory effect
- effect on MDCK cell growth (MDCK cells [2]; 5 days in 5 μM inhibitor): no slowing of growth
- protein per dish (MDCK cells [2]; 5 days in 5 μM inhibitor, BSA complex): 3.30 ± 0.04 mg
- Sphingomyelinase pH 4.5, enzyme activity (% of control) (Acid SMase; 5 μM): 101 ± 7 % of control
- Sphingomyelinase pH 4.5, enzyme activity (% of control) (Acid SMase; 50 μM): 112 ± 11 % of control
- degree of inhibition of GlcCer synthase ([3]; 3 μM, inhibitor incorporated into the substrate liposomes): 77±0.9%
- Inhibition at 5 μM [3]: 87 ± 0.4^g %
- GlcCer in cells (TLC) (MDCK cells [4]; 1 μM for 3 days): virtually no GlcCer was visible
- GlcCer in cells (TLC) (MDCK cells [4]; 0.02 to 1 μM for 3 days): great depletion of GlcCer
- ceramide accumulation (TLC) (MDCK cells [4]; 0.02 to 1 μM for 3 days): no ceramide accumulation
- all the GSLs in cells (TLC) (MDCK cells [4]; 5 days in 5 μM inhibitor): virtually undetectable
- ceramide concentration (MDCK cells [4]; depleted cells, 5 days in 5 μM inhibitor): 13.9±0.2 μg/mg protein
- Ceramide Synthase, enzyme activity (% of control) (Ceramide synthase; 5 μM): 90 ± 8 % of control
- Ceramide Synthase, enzyme activity (% of control) (Ceramide synthase; 50 μM): 71 ± 18^a % of control
- Ceramidase pH 7.4, enzyme activity (% of control) (neutral ceramidase; 5 μM): 116 ± 20 % of control
- Ceramidase pH 7.4, enzyme activity (% of control) (neutral ceramidase; 50 μM): 112 ± 3 % of control

Structure (SMILES): CCCCCCCCCCCCCCCC(=O)NC(CN1CCCCC1)C(O)c1ccc(F)cc1 (mixture of isomers) [BML-118]
- IC50 [5]: 2000 nM
- Inhibition at 5 μM [3]: 8.3 ± 1.4^f %
- % Inhibition at 80 μM [3]: 62 ± 0.4^b %
- IC50 [6]: 2000 nM
- IC50 [7]: 2000 nM

Structure (SMILES): CCCCCCCCCCCCCCCC(=O)NC(CN1CCCCC1)C(O)c1ccccc1 (mixture of isomers) [BML-115]
- IC50 [5]: 2000 nM
- IC50 [8]: 2000 nM
- Inhibition at 5 μM [3]: 12.4%
- % Inhibition at 80 μM ([3]; 80 µM): 82 ± 0.3^b % and 84 ± 0.8^a %
- improvement of activity relative to PPMP ([3]; calculated from inhibitions at 5 μM in Expt. f and relative purities): ~1.4 fold
- IC50 [6]: 2000 nM
- IC50 [7]: 2000 nM

Structure (SMILES): CCCCCCCCCCCCCCCC(=O)NC(CN1CCC1)C(O)c1ccccc1 (mixture of isomers) [BML-123]
- IC50 [5]: 2000 nM
- IC50 [8]: 2000 nM
- Inhibition at 5 μM [3]: 15 ± 0.8^f %
- % Inhibition at 80 μM [3]: 86 ± 0.1^d %
- IC50 [7]: 2000 nM

Structure (SMILES): COc1cc([C@@H]2c3cc4c(cc3[C@@H](O[C@@H]3O[C@@H]5CO[C@@H](C)O[C@H]5[C@H](O)[C@H]3O)[C@H]3COC(=O)[C@H]23)OCO4)cc(OC)c1O [etoposide]
- IC50 [9]: 100 to 1000 nM

Structure (SMILES): CCCCCCCCCCCCCCCC(=O)N[C@H](CN1CCCC1)[C@H](O)c1ccc(C)cc1 [p-methyl-P4]
- σ + π [10]: 0.39

Structure (SMILES): CCCCCCCCCCCCCCCC(=O)N[C@H](CN1CCCC1)[C@H](O)c1ccc(Cl)cc1 [p-chloro-P4]
- σ + π [10]: 0.94

Structure (SMILES): CN(Cc1cnc2nc(N)nc(N)c2n1)c1ccc(C(=O)N[C@@H](CCC(=O)O)C(=O)O)cc1 [methotrexate]
- IC50 [9]: 30 to 200 nM

Structure (SMILES): CCCCCCCCCCCCCCCC(=O)N[C@H](CN1CCCC1)[C@H](O)c1cccc(OC)c1 [m-methoxy-P4]
- σ + π [10]: 0.10

Structure (SMILES): CCCCCCCCCCCCCCCC(=O)N[C@H](CN1CCCC1)[C@H](O)c1ccc(OC)cc1 [D-threo-p-methoxy-P4]
- σ + π [10]: −0.29

Structure (SMILES): O=c1[nH]cc(F)c(=O)[nH]1 [fluorouracil]
- IC50 [9]: 70 to 200 nM
